# Laboratory results reported in patent US10801068B2, “JAG1 expression predicts therapeutic response in NASH” (The Trustees of Columbia University in the City of New York, priority 2015, dated 2020).
# Where two headings read alike, the source gives them in different places.
# What was measured:
# [1] = tested on: adult patients with biopsy-confirmed NASH; settings: cited from earlier work
# [2] = tested on: adult, non-diabetic patients with NASH; assay: PIVENS trial (Pioglitazone versus Vitamin E versus Placebo), ancillary analysis of responders, NAS, ALT, HOMA-IR; format: in vivo, human
# Description: A pilot Ancillary Study to the Pioglitazone versus Vitamin E versus Placebo for the Treatment of nondiabetic Patients with Nonalcoholic Steatohepatitis (PIVENS) trial (Sanyal 2010), was conducted to ask whether hepatic Notch signaling tracks with disease pathology, and thus represent a novel biomarker of NAFLD/NASH.
# PIVENS investigators randomized adult, non-diabetic patients with NASH to therapy with placebo, vitamin E (800 IU daily) or pioglitazone (30 mg daily), and had strict inclusion and exclusion criteria for trial entry, as well as a thorough clinical phenotyping of these patients (Sanyal 2011; Sanyal 2010). The PIVENS primary outcome was an improvement in NASH pathology, defined by improved hepatocellular ballooning without increase in fibrosis, and either a 2+ point decrease in NAS or to a score of ≤3 points.
# Research-grade specimens were saved from subjects from the PIVENS trial for Ancillary Studies (Chalsani 2009). These samples were used to test the potential role of Notch signaling as either a biomarker or contributor to the NAFLD/NASH pathology.
# (§1) A subset (Table 1, right), of PIVENS research subjects had paired baseline and 96 wk cDNA available for analysis.
# HES1 = assay: PIVENS paired baseline and 96 wk liver cDNA, HES1 expression; format: in vivo, human; settings: Vitamin E-treated responders, baseline vs 96 wk
# Description: as §1
# (§2) Sample size calculations are based from PIVENS data as described in Example 9A, and exclude pioglitazone-treated patients to be conservative. Using data derived from paired samples in Vitamin E-treated responders (mean difference of 1.11±0.51 fg/ng 18S for HES1 and 2.27±0.71 fg/ng 18S for HEYL), we calculated using unpaired t-testing with type I error=0.05 and type II error=[…], that 12 before-and-after biopsies in FLINT are required to detect a statistically significant difference in OCA-responders for both HES1 and HEYL.
# HEYL = assay: PIVENS paired baseline and 96 wk liver cDNA, HEYL expression; format: in vivo, human; settings: Vitamin E-treated responders, baseline vs 96 wk
# Description: as §1, §2
# [3] = tested on: adult, non-diabetic patients with NASH; settings: final analysis; vitamin E 800 IU daily, pioglitazone 30 mg daily; cited from earlier work
# [4] = Cross-sectional study, nonresponders (NR)
# [5] = Cross-sectional study, responders (R)
# [6] = Cross-sectional study, number of subjects with NASH resolution or primary PIVENS outcome
# [7] = Longitudinal study, nonresponders (NR)
# [8] = Longitudinal study, responders (R)
# [9] = Longitudinal study, number of subjects
Molecule,Responders (%) ([2]; Cross-sectional study),"ALT [2, 4]","HOMA-IR [2, 4]","NAS [2, 4]","ALT [2, 5]","HOMA-IR [2, 5]","NAS [2, 5]","Responders [2, 6]",Responders (%) ([2]; Longitudinal study),"ALT [2, 7]","HOMA-IR [2, 7]","NAS [2, 7]","ALT [2, 8]","HOMA-IR [2, 8]","NAS [2, 8]","Responders [2, 9]",other results
"CC[C@H]1[C@@H](O)[C@@H]2[C@H](CC[C@]3(C)[C@@H]([C@H](C)CCC(=O)O)CC[C@@H]23)[C@@]2(C)CC[C@@H](O)C[C@@H]12 [OCA, obeticholic acid]",,,,,,,,,,,,,,,,,"HOMA-IR ([1]; change, p=0.01): +13 U; insulin ([1]; change, p=0.02): +29 pmol/L; HDL cholesterol ([1]; in vivo): significant lowering; insulin resistance ([1]; in vivo): increased insulin resistance; insulin resistance ([1]; in vivo, listed as obeticholic acid): clearly induced insulin resistance"
"CCc1ccc(CCOc2ccc(CC3SC(=O)NC3=O)cc2)nc1 (stereo not shown) [PIO, pioglitazone]",(78%),46 U/L,5.5,4.8,34 ± U/L,2.9 ±,2.2 ±,29,(75%),56 U/L,4.1,5.0,41 U/L,3.3,3.0,3,
vitamin E [VitE],(61%),55 U/L,5.6,4.6,33 U/L,5.2,2.7 ±,25,(60%),58 U/L,5.1,3.9,45 U/L,5.1,2.6,6,mean difference of HES1 in paired samples (HES1): 1.11±0.51 fg/ng 18S; mean difference of HEYL in paired samples (HEYL): 2.27±0.71 fg/ng 18S; PIVENS primary outcome (improvement in NASH pathology) [3]: met the primary outcome
